Experimental data as given in US9416115B2, “Fused heterocyclic compounds as ion channel modulators” (Gilead Sciences, Inc., priority 2013, dated 2016).

Columns and labels:
hNav1.1 (SCN1A) = hNav1.1 (SCN1A) (Homo sapiens, UniProt P35498); experiment: Use-dependent inhibition of the CNS Nav1.1 sodium channel; assay type: cell-based; details: use-dependent block, 25 Hz, pulse 20, read-out: Nav1.1 UDB 25 Hz 10 uM
In short: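 HEK-293 cells stably expressing WT hNav1.1, automated whole-cell patch clamp at 23-25 °C with CsF-based internal and NaCl external solutions, pH 7.35. Compound applied twice, 200 s equilibration; block measured at pulse 20 of a 25 Hz train (0 mV, 20 ms) from −120 mV, as mean % inhibition versus compound-free.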

[1] = target: wild-type human cardiac sodium channel, hNav1.5 (Homo sapiens, UniProt Q14524); experiment: Late INa screening assay (QPatch whole cell patch clamp, Tefluthrin-induced late current); assay type: cell-based; details: 1 uM; HEK293 hNav1.5; percent block of late INa
wild-type human cardiac sodium channel, hNav1.5, sequence (Q14524 whole entry): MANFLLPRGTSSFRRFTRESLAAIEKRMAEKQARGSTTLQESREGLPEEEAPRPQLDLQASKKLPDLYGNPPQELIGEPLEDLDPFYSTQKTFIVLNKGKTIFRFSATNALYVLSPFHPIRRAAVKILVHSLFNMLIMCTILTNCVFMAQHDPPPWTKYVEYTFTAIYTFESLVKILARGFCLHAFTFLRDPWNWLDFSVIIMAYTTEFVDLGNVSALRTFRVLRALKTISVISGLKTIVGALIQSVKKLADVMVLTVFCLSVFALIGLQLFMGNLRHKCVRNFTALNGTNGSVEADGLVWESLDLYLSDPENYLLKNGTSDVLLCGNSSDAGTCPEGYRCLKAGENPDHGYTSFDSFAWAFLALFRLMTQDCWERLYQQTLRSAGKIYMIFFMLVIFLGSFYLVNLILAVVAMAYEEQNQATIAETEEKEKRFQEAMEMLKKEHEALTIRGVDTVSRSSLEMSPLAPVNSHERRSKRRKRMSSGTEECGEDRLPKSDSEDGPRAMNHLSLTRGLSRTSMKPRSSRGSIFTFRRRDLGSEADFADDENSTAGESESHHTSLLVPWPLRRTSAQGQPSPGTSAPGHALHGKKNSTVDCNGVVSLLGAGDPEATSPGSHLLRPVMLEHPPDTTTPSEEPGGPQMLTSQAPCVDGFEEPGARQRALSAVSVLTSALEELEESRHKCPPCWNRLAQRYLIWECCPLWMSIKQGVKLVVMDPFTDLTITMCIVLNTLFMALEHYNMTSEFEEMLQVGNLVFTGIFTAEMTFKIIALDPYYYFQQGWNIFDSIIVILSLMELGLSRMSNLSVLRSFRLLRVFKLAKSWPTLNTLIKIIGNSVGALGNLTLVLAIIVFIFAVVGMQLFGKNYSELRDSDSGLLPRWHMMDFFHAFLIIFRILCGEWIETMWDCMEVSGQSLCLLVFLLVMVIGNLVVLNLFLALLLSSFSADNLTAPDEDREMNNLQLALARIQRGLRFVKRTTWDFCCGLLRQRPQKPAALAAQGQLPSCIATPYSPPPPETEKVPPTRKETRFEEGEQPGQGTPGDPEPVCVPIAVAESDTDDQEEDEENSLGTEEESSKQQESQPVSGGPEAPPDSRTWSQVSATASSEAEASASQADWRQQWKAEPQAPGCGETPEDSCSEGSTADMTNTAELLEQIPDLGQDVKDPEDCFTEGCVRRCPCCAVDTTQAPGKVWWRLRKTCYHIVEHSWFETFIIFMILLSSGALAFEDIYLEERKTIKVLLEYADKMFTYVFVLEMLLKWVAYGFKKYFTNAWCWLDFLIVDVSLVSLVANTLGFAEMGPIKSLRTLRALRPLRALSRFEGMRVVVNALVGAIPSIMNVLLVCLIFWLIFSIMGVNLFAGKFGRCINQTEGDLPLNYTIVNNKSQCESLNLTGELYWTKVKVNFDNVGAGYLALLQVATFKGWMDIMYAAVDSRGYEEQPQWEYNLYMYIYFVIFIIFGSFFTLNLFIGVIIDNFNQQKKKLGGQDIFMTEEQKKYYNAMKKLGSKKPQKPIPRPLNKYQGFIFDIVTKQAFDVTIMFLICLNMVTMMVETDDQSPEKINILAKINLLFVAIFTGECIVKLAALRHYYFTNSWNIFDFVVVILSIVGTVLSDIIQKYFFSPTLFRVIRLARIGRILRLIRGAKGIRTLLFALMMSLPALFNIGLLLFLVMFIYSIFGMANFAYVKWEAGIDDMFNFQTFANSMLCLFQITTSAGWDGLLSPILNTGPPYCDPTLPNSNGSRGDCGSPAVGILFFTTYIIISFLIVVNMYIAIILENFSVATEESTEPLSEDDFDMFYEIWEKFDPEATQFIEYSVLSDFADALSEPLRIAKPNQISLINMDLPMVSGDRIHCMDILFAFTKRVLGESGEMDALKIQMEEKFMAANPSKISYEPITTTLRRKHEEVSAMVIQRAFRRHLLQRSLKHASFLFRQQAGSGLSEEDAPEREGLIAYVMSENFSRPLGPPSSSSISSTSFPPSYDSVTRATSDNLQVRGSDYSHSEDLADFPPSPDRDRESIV
In short: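 HEK293 cells stably expressing hNav1.5 without beta subunits were whole-cell patch clamped at 23-25 °C, stepping from −120 to −20 mV for 250 ms at 0.1 Hz. Late current (240–265 ms) was induced with 10 μM Tefluthrin, and compounds were added typically at 0.3 or 1 μM. Percent block was taken against 0 Na baseline with rundown correction.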

Work on `FC(F)(F)Oc1ccc(-c2ccc3onc(OCc4cn5ccccc5n4)c3c2)cc1` [Example 51, 3-(imidazo[1,2-a]pyridin-2-ylmethoxy)-5-(4-(trifluoromethoxy)phenyl)benzo[d]isoxazole] yielded an inhibition at 10 µM (hNav1.1 (SCN1A)) of 30% and an inhibition at 1 µM [1] of 38.8%.
